Tests used:
Assay in all cases: relative viability (nuclei count vs DMSO), 5 days (fraction); higher = more cells survive
[1] = compound: CN1CCC(CNc2ccc3ncc(-c4cccc(OC(F)(F)F)c4)n3n2)CC1 [SGI-1776] + CC(=O)Nc1cccc(-n2c(=O)n(C3CC3)c(=O)c3c(Nc4ccc(I)cc4F)n(C)c(=O)c(C)c32)c1 [Trametinib] (partner 0.02 µM)
How it was run: (§1)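 The day after seeding in 1536-well plates, lung cancer cell lines were treated by pin tool with a single drug, or with a fixed anchor-drug dose together with five library-drug doses (not always all listed) in √10 steps. After 5 days, a combined fix-and-stain solution (final 0.05% Triton X-100, 1% formaldehyde, 1 ug/ml Hoechst) was added. Nuclei counted on 4× images gave relative viability as treated counts over vehicle counts, reported as the median of duplicate plates.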

[2] = compound: CN1CCC(CNc2ccc3ncc(-c4cccc(OC(F)(F)F)c4)n3n2)CC1 [SGI-1776] + Cc1nc(NC(=O)N2CCC[C@H]2C(N)=O)sc1-c1ccnc(C(C)(C)C(F)(F)F)c1 [Alpelisib] (partner 2 µM)
How it was run: as §1

[3] = compound: C1COCCN1C2=NC(=NC3=C2OC4=C3C=CC=N4)C5=CC(=CC=C5)NC(=O)C6=CN=C(C=C6)N + CC(=O)c1c(C)c2cnc(Nc3ccc(N4CCNCC4)cn3)nc2n(C2CCCC2)c1=O [Palbociclib] (partner 0.5 µM)
How it was run: as §1

[4] = compound: Nc1ccccc1NC(=O)c1ccc(CNC(=O)OCc2cccnc2)cc1 [Entinostat] + CCNC(=O)c1noc(-c2cc(C(C)C)c(O)cc2O)c1-c1ccc(CN2CCOCC2)cc1 [Luminespib] (partner 0.01 µM)
How it was run: as §1

Row | Cell Line | relative viability ([1]; first compound 0.08 µM) | relative viability ([1]; first compound 0.8 µM) | relative viability ([1]; first compound 2.53 µM) | relative viability ([1]; first compound 8 µM) | relative viability ([2]; first compound 0.08 µM) | relative viability ([2]; first compound 0.8 µM) | relative viability ([2]; first compound 2.53 µM) | relative viability ([2]; first compound 8 µM) | relative viability ([3]; first compound 0.02 µM) | relative viability ([3]; first compound 0.06325 µM) | relative viability ([3]; first compound 0.2 µM) | relative viability ([3]; first compound 0.6325 µM) | relative viability ([3]; first compound 2 µM) | relative viability ([4]; first compound 0.02 µM) | relative viability ([4]; first compound 0.06325 µM) | relative viability ([4]; first compound 0.2 µM) | relative viability ([4]; first compound 0.6325 µM) | relative viability ([4]; first compound 2 µM)
1 | HCC-78 | 0.772 | 0.804 | 0.693 | 0.72 | 0.37 | 0.333 | 0.315 | 0.248 | 0.48 | 0.484 | 0.476 | 0.427 | 0.378 |  |  |  |  | 
2 | COR-L23 | 0.694 | 0.619 | 0.613 | 0.408 | 0.935 | 0.697 | 0.743 | 0.521 | 0.262 | 0.314 | 0.3 | 0.307 | 0.229 | 0.697 | 0.535 | 0.49 | 0.296 | 0.108
3 | NCI-H2009 | 0.345 | 0.303 | 0.234 | 0.175 | 1.21 | 1.17 | 1.25 | 1.09 | 0.195 | 0.224 | 0.144 | 0.223 | 0.202 | 1.05 | 0.967 | 0.974 | 0.771 | 0.762
4 | NCI-H3122 | 0.238 | 0.19 | 0.274 | 0.244 | 0.707 | 0.837 | 0.868 | 0.757 | 0.182 | 0.187 | 0.164 | 0.186 | 0.16 | 0.129 | 0.141 | 0.102 | 0.0843 | 0.073
5 | NCI-H2228 | 0.591 | 0.487 | 0.52 | 0.35 | 0.776 | 0.636 | 0.727 | 0.239 | 0.934 | 0.817 | 0.407 | 0.64 | 0.621 | 0.187 | 0.132 | 0.135 | 0.184 | 0.102
6 | NCI-H1944 | 0.389 | 0.408 | 0.426 | 0.378 | 0.877 | 0.752 | 0.807 | 0.649 | 0.354 | 0.381 | 0.336 | 0.304 | 0.253 | 0.73 | 0.625 | 0.397 | 0.329 | 0.183
7 | NCI-H2342 | 0.891 | 0.779 | 0.809 | 0.769 |  |  |  |  | 0.525 | 0.522 | 0.505 | 0.512 | 0.515 | 0.69 | 0.729 | 0.744 | 0.589 | 0.553
8 | NCI-H358 | 0.14 | 0.146 | 0.128 | 0.123 | 0.786 | 0.837 | 0.751 | 0.405 | 0.119 | 0.14 | 0.137 | 0.145 | 0.108 | 0.48 | 0.484 | 0.407 | 0.238 | 0.159
9 | NCI-H1755 | 0.802 | 0.741 | 0.762 | 0.651 | 0.996 | 0.944 | 0.885 | 0.795 | 0.418 | 0.481 | 0.442 | 0.426 | 0.365 | 0.483 | 0.459 | 0.678 | 0.528 | 0.415
10 | A-427 | 0.749 | 0.726 | 0.722 | 0.542 | 1.16 | 1.14 | 1.12 | 1.02 | 0.517 | 0.524 | 0.496 | 0.512 | 0.454 | 1.01 | 1.03 | 0.83 | 0.651 | 0.582
11 | SK-LU-1 | 0.557 | 0.541 | 0.533 | 0.408 | 1.02 | 1.01 | 0.816 | 0.406 | 0.382 | 0.382 | 0.371 | 0.367 | 0.359 | 0.207 | 0.202 | 0.227 | 0.2 | 0.212
12 | NCI-H838 | 0.519 | 0.534 | 0.414 | 0.385 | 1.1 | 1.01 | 0.95 | 0.874 | 0.194 | 0.212 | 0.195 | 0.197 | 0.175 | 0.291 | 0.257 | 0.291 | 0.196 | 0.201
13 | ABC-1 |  |  |  |  | 1.12 | 0.977 | 1.06 | 0.948 | 0.562 | 0.658 | 0.55 | 0.7 | 0.471 | 0.661 | 0.49 | 0.609 | 0.555 | 0.358
14 | NCI-H1563 |  |  |  |  | 0.928 | 1 | 0.874 | 0.695 |  |  |  |  |  | 0.515 | 0.503 | 0.478 | 0.483 | 0.47
15 | NCI-H1650 | 0.543 | 0.521 | 0.504 | 0.371 |  |  |  |  | 0.336 | 0.321 | 0.274 | 0.39 | 0.287 | 0.214 | 0.198 | 0.185 | 0.212 | 0.195
16 | HCC-366 | 0.344 | 0.368 | 0.289 | 0.19 | 0.51 | 0.335 | 0.372 | 0.189 | 0.397 | 0.435 | 0.367 | 0.419 | 0.22 |  |  |  |  | 
17 | NCI-H522 | 0.81 | 0.789 | 0.723 | 0.798 |  |  |  |  | 0.798 | 0.984 | 0.884 | 0.743 | 0.838 | 1.21 | 1.33 | 1.38 | 1.1 | 0.649
18 | IA-LM |  |  |  |  | 0.883 | 0.977 | 0.764 | 0.874 |  |  |  |  |  |  |  |  |  | 
19 | SW 900 | 0.855 | 0.76 | 0.653 | 0.724 |  |  |  |  | 0.52 | 0.555 | 0.525 | 0.548 | 0.345 | 0.185 | 0.157 | 0.222 | 0.163 | 0.202
20 | EBC-1 |  |  |  |  | 0.888 | 0.78 | 0.903 | 0.434 |  |  |  |  |  |  |  |  |  | 
21 | NCI-H596 | 0.797 | 0.733 | 0.782 | 0.678 | 0.529 | 0.439 | 0.357 | 0.349 |  |  |  |  |  | 0.836 | 0.935 | 0.992 | 0.905 | 0.597

— the supplement of paper PMC10307832
